Entries after “also recorded” stand apart in the source; their conditions may differ.
Tests used:
[1] = target: T1, recombinant human cathepsin L (Homo sapiens, UniProt P07711); experiment: initial inhibitory screen of precursors against recombinant human cathepsin L; type: biochemical; details: 10 μM
T1 sequence (P07711 18-333 limits assumed): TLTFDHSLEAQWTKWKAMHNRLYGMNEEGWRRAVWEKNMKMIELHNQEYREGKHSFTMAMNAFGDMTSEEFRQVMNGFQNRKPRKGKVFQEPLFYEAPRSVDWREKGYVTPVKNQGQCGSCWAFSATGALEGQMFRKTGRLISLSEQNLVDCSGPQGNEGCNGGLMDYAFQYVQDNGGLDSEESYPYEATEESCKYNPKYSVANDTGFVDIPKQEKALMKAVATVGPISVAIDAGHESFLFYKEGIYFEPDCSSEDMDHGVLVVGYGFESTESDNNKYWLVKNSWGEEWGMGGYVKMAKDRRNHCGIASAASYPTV
Protocol: An initial inhibitory screen of various precursors (see FIG. 3A and FIG. 3B) was performed at 10 μM against recombinant human cathepsin L. The percent inhibition of each precursor is shown below its corresponding precursor in FIG. 3A and FIG. 3B. Precursor 301 was identified as a lead precursor with a 95±3% inhibition. In some embodiments, one or more of the 2, 3, 5 and/or 6 positions are occupied by an aryl group. Examples of suitable aryl groups include NHPh, OPh or homologs thereof.

[2] = target: T2, active recombinant human cathepsin L (Homo sapiens, UniProt P07711); experiment: inhibition and inactivation kinetics of cathepsin L, hydrolysis of fluorescent substrate Z-Phe-Arg-(7-Amino-4-methylcoumarin); type: biochemical
T2 construct: active recombinant human cathepsin L
From the text: Based on this initial inhibitory screen compound 100 (FIG. 1), was proposed and successfully synthesized from precursor 301 using a multi-step synthetic methodology (FIG. 4A and FIG. 4B). […] FIG. 5 depicts a progress curve for cathepsin L-catalyzed hydrolysis of fluorescent substrate, Z-Phe-Arg-(7-Amino-4-methylcoumarin) with various concentration of compound 100. […] The dose-dependent progress curves were utilized to obtain the second order cathepsin L inactivation rate constant (kinact). […] The mode of inhibition was irreversible because no significant recovery of enzyme activity could be achieved, even after a very large dilution of inactivated reaction mixture.
(§1) This panel of enzymes included cysteine cathepsins, an aspartyl cathepsin, a serine cathepsin, a cysteine containing enzyme PTP, and a serine protease. The second order inactivation rate constants were thus determined by performing inactivation kinetics under a pseudo-first order condition (Table 1). […] Furthermore, no reactivity was observed against other panel of enzymes (e.g. aspartyl cathepsin D, serine cathepsin G, and a low pKa cysteine containing enzyme hPTP1B, and serine protease trypsin). A remarkable selectivity profile observed for compound 100 in these experiments is noteworthy, and thus is thought to lend itself well for the development of cathepsin L probes.
(§2) Table 1 depicts second order enzyme inactivation rate constants (kinact) of compound 100 against a panel of closely-related enzymes. Relative Selectivity Factor (RSF)=kinact (Cathepsin L)/kinact (other enzyme); NI*=no inhibition at 0.1 mM of compound 100 in 1 h, NA**=Not Applicable.

[3] = target: T3, Cathepsin K (Homo sapiens, UniProt P43235); experiment: selectivity panel inactivation kinetics, Cathepsin K; type: biochemical; details: kinact (Cathepsin L)/kinact (Cathepsin K); fold
T3 sequence (P43235 115-329): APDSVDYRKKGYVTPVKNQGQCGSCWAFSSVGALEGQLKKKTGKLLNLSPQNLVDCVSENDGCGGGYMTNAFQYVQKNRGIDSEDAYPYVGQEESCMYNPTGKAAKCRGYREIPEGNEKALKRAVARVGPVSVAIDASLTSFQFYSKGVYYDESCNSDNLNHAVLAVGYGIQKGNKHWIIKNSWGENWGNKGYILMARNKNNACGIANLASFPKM
From the text: as §1, §2

[4] = target: Cathepsin B (Homo sapiens, UniProt P07858); experiment: selectivity panel inactivation kinetics, Cathepsin B; type: biochemical; details: kinact (Cathepsin L)/kinact (Cathepsin B); fold
From the text: as §1, §2

[5] = target: Cathepsin S (Homo sapiens, UniProt P25774); experiment: selectivity panel inactivation kinetics, Cathepsin S; type: biochemical; details: kinact (Cathepsin L)/kinact (Cathepsin S); fold
From the text: as §1, §2

[6] = target: Cathepsin D (Homo sapiens, UniProt P07339); experiment: selectivity panel inactivation kinetics, Cathepsin D; type: biochemical; details: aspartyl cathepsin D
From the text: as §1, §2

[7] = target: T4, Cathepsin G (Homo sapiens, UniProt P08311); experiment: selectivity panel inactivation kinetics, Cathepsin G; type: biochemical; details: serine cathepsin G
T4 sequence (P08311 21-244): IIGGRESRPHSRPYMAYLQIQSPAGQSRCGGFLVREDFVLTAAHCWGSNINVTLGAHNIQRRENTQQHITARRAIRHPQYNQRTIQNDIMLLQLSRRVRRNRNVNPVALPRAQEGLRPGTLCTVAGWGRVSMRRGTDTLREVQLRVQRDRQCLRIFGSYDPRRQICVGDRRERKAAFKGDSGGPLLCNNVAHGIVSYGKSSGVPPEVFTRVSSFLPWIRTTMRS
From the text: as §1, §2

[8] = target: T5, hPTP1B (Homo sapiens, UniProt P18031); experiment: selectivity panel inactivation kinetics, hPTP1B; type: biochemical
T5 sequence (P18031 1-435): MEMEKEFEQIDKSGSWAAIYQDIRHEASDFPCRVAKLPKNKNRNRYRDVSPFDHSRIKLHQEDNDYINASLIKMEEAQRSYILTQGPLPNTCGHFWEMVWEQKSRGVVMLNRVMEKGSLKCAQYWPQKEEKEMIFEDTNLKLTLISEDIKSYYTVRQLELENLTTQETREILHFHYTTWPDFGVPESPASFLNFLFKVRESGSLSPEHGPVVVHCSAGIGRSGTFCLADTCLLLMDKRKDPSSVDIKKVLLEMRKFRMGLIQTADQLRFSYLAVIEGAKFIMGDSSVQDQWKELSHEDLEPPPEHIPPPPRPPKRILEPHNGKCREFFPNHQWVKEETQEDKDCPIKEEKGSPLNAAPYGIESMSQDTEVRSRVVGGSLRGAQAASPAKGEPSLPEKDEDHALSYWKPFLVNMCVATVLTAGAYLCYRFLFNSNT
From the text: as §1, §2

[9] = tested on: Trypsin; experiment: selectivity panel inactivation kinetics, Trypsin; type: biochemical; details: serine protease trypsin
From the text: as §1, §2

[10] = tested on: intracellular cathepsin L activity in MDA-MB-231 cells; experiment: intracellular cathepsin L activity in MDA-MB-231 cells with cell-permeable fluorescent substrate; type: cell-based
From the text: Cell-specific and tissue-specific microenvironments are highly dynamic, and can have a dramatic impact on enzymatic activities and their in vivo function. A direct quantitative reporter of cathepsin L activity in living cancer cells is more desirable for dissecting its role in promoting metastatic cancer. Thus an activity-dependent small molecule probe with desirable cell permeability is urgently needed. […] This cell line is known to overexpress cathepsin L, thereby promoting invasion. A commercial cell-permeable fluorescent substrate of cathepsin L (Enzo LifeSciences, Inc.) was utilized to assess the intracellular inhibitory efficacy of compound 100.
Specifically, the effect of cathepsin L inhibitor 100 on intracellular cathepsin L activity in metastatic breast cancer MDA-MB-231 cell line was examined by fluorescence. Control cells and cells exposed to compound 100 were incubated with (a) vehicle (DMSO 0.05%). The non-control cells were also incubated with compound 100 (750 nM) overnight (22 h). […] Bright-field, fluorescence and merged images were obtained. […] The results are representative of three independent experiments. The effectiveness of cathepsin L inhibitor 100 was also evaluated using a functional wound-healing assay (FIG. 6A to 6F).

[11] = tested on: MDA-MB-231 breast cancer cells; experiment: wound healing assay, cell migration; type: cell-based; details: MDA-MB-231 cells, 750 nM, 0, 7 and 22 hrs
Protocol: MDA-MB-231 cells were grown in an eight-well glass dish overnight before treating with DMSO (control, 0.05%, FIGS. 6A, 6B and 6C), and compound 100 (750 nM, FIGS. 6D, 6E and 6F). After creating the wounds, images were taken at three different time intervals: t=0 hr (FIG. 6A and FIG. 6D), 7 hrs (FIG. 6B and FIG. 6E), and 22 hrs (FIG. 6C and FIG. 6F). Representative images of three independent experiments are shown. The dotted lines indicate the edge of the wound at time zero, and the arrows indicate the area of wound closure.
FIG. 7 depicts wound closure, a direct measure of cell migratory potential, as calculated using the following equation: % Wound Closure=[(At=0h−At=22h)/At=0h]×100%, where At=0h is the area of the wound measured immediately after the scratch, and At=22h is the area of the wound after 22 hrs. The figure represents a statistical analysis by three independent experiments using the unpaired Student's t test. The data were evaluated as the mean±1 standard deviation. The image analysis were performed by ImageJ software.

Cathepsin D, sequence (P07339 65-412, species assumed): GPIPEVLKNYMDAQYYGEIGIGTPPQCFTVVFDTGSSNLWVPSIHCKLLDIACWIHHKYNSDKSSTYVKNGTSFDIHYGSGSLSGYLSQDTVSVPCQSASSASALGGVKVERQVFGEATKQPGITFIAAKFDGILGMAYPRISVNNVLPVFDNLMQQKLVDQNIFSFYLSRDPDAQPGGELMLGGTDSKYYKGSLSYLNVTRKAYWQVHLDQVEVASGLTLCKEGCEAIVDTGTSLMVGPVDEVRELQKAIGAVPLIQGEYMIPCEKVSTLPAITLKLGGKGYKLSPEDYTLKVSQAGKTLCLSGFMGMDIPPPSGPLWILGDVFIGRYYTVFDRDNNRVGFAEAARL
Cathepsin S, sequence (P25774 115-331, species assumed): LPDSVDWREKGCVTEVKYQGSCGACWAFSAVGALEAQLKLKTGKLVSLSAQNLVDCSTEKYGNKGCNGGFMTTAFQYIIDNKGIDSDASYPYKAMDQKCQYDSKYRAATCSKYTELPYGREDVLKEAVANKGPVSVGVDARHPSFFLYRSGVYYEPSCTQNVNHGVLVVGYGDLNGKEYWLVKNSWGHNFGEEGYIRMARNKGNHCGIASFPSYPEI

percent inhibition [1] | time to near complete loss of cathepsin L activity ([2]; 15 nM compound 100) | IC50 ([2]; human cathepsin L) | RSF (Relative Selectivity Factor) ([2]; kinact (Cathepsin L)/kinact (Cathepsin L)) | mode of inhibition ([2]; no significant recovery of activity after very large dilution) | RSF (Relative Selectivity Factor) [3] | RSF (Relative Selectivity Factor) [4] | RSF (Relative Selectivity Factor) [5] | reactivity [6] | reactivity [7] | reactivity [8] | cell permeability [10] | Structure (SMILES) | reactivity [9] | intracellular substrate turnover (green fluorescence) ([10]; 750 nM, overnight (22 h), compared to control) | cell migratory potential (wound closure) [11]
95±3% |  |  |  |  |  |  |  |  |  |  |  | C=CS(=O)(=O)Oc1ccc(Br)cc1 [Precursor 301] |  |  | 
 | less than 100 s | 3.6 ± 0.1 nM | 1 | irreversible | 100 | 44,000 | 13 | no reactivity | no reactivity | no reactivity | cell permeable | CC(C)C[C@@H](/C=C/S(=O)(=O)Oc1ccc(Br)cc1)NC(=O)[C@H](Cc1ccccc1)NC(=O)OCc1ccccc1 [compound 100] | no reactivity | near complete loss of intracellular substrate turnover; also recorded: significant loss of green fluorescent signal intensity | reducing cell migratory potential

From patent US9481876B2, “Cathepsin L inhibitors and probes comprising vinyl sulfonate moiety and methods of using same” (Research Foundation of the City University of New York, priority 2014, dated 2016)
